Earlier results as cited in US20230130225A1, “METHOD OF TREATING AMYOTROPHIC LATERAL SCLEROSIS WITH MYELOPEROXIDASE INHIBITOR” (Biohaven Therapeutics Ltd., priority 2020, published 2023).
Read-outs that look alike come from different tables or passages of the source.

Assays:
MPO = biological target: T1, MPO (Homo sapiens, UniProt P05164); conditions: 600 mg BID, Phase 2 studies
T1 construct: from tissue; host or cells: plasma of clinical study participants

TSPO = conditions: 600 mg BID, Phase 2 studies
[1] = subjects with MSA, 12 weeks, 600 mg BID
[2] = participants with Parkinson's disease and MSA, dosages of up to 600 mg BID for 8-12 weeks
[3] = healthy subjects, multiple dosages of up to 900 mg BID

T1 sequence (P05164 279-745 limits assumed): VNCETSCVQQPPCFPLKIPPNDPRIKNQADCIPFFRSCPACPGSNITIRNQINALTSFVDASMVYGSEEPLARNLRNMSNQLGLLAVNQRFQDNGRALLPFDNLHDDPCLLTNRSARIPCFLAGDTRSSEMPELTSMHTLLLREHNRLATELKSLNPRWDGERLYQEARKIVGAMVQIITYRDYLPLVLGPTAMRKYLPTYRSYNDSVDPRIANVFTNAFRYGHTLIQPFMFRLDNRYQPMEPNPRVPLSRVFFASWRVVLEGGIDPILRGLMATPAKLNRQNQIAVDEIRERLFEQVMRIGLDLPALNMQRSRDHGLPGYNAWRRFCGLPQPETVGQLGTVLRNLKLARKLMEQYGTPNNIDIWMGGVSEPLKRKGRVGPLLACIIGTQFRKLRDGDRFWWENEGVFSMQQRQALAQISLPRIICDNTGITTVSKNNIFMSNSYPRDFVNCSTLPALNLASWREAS
T1 sequence (P05164 165-273 limits assumed): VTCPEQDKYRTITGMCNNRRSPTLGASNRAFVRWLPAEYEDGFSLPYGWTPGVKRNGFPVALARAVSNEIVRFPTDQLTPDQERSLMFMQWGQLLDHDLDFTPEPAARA

## CC(C)OCCn1c(=S)[nH]c(=O)c2[nH]ccc21 [verdiperstat, 1-(2-isopropoxyethyl)-2-thioxo-1,2,3,5-tetrahydro-pyrrolo[3,2-d]pyrimidin-4-one]
MPO
  MPO activity in plasma: decreased
TSPO
  TSPO binding on brain PET imaging (microglial activation/neuroinflammation): reduced
[1]
  trends on clinical efficacy measures: favorable, dose-dependent trends
[2]
  safety and tolerability: generally safe and well tolerated
[3]
  safety and tolerability: generally safe and well tolerated
